Laboratory results as given in ChEMBL document CHEMBL1201862, “PubChem BioAssay data set” (2004).
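Values below derive from 48-hour exposures of cells grown in 96-well plates, with endpoints linearly interpolated between the two concentrations bracketing the appropriate inhibition level. GI50: concentration for 50% inhibition of growth.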 Activity calls are given as the source filed them. Cut-off read from the data, not from the text of the source: active = GI50 up to about 1.1 µM and inactive = higher.

Tests used:
Assay in all cases: inhibition of tumour cell growth, NCI panel, 48 h
[1] = test system: NCI-H522
[2] = test system: A549
[3] = test system: SW-620
[4] = test system: MCF7
[5] = test system: 786-0
[6] = test system: M14
[7] = test system: NCI-H226
[8] = test system: SF-295
[9] = test system: LOX IMVI
[10] = test system: SN12C
[11] = test system: EKVX
[12] = test system: SNB-19
[13] = test system: SK-OV-3
[14] = test system: OVCAR-5
[15] = test system: UACC-257
[16] = test system: HCC 2998
[17] = test system: CAKI-1
[18] = test system: MDA-MB-435
[19] = test system: COLO 205
[20] = test system: DU-145

Measured: GI50

COC(=O)C1(C)CCCC2(C)C3CCC4CC3(C=C4CO)CCC12 (stereo not given)
inactive: [1] 34.2 µM | [2] > 100 µM | [3] 69.2 µM | [4] 22.8 µM | [5] 43.4 µM | [6] 93.8 µM | [7] 53.2 µM | [8] 60.4 µM | [9] 20.7 µM | [10] 20.3 µM | [11] 41.2 µM | [12] 28.2 µM | [13] > 100 µM | [14] > 100 µM | [15] 41.9 µM | [16] 39.6 µM | [17] 43.8 µM | [18] 83.2 µM | [19] 74.8 µM | [20] > 100 µM

COc1ccc2cc1Oc1ccc(cc1)CC1c3cc(OC)c(cc3CCN1C)Oc1c(OC)c(OC)cc3c1C(C2)N(C)CC3 (stereo not given)
inactive: [1] 9.89 µM | [2] 17.5 µM | [3] 26.2 µM | [4] 14.6 µM | [5] 13.1 µM | [6] 4.91 µM | [7] 16.9 µM | [8] 9.06 µM | [9] 9.98 µM | [10] 9.02 µM | [11] 12.2 µM | [12] 12.7 µM | [13] 29.4 µM | [14] 34.2 µM | [15] 6.75 µM | [16] 9.62 µM | [17] 11.2 µM | [18] 12 µM | [19] 2.49 µM | [20] 12.6 µM

CCOC(=O)C(C(N)=O)C1=Nc2cc([N+](=O)[O-])ccc2N/C1=C\C(=O)c1ccc(C)cc1 (stereo not given)
inactive: [1] 17.7 µM | [2] 26.9 µM | [3] 28.7 µM | [4] 22.4 µM | [5] 13.1 µM | [6] 38.3 µM | [7] 27.4 µM | [8] 19.4 µM | [9] 23.3 µM | [10] 26.2 µM | [11] 26.7 µM | [12] 20.7 µM | [13] 18.3 µM | [14] 70.8 µM | [15] 39.5 µM | [16] 23.3 µM | [17] 46.6 µM | [18] 39.4 µM | [19] 27.2 µM | [20] 32.6 µM

C[C@]12CC/C(=N\O)C=C1CC[C@@H]1[C@@H]2CC[C@]2(C)C(=N/O)/C(=C/c3ccncc3)C[C@@H]12
inactive: [1] 27.2 µM | [2] 11.1 µM | [3] 37.4 µM | [4] 16.3 µM | [5] 24.7 µM | [6] 13.5 µM | [7] 6.37 µM | [8] 31.3 µM | [9] 20 µM | [10] 17.3 µM | [11] 25.7 µM | [12] 28.8 µM | [13] 51.5 µM | [14] 42.8 µM | [15] 28.4 µM | [16] 19.1 µM | [17] 24.2 µM | [18] 21.8 µM | [19] 15.9 µM | [20] 31.6 µM

Nc1c(/C=C/c2cc3cc(C4=NCCN4)ccc3o2)[nH]c2cc(C3=NCCN3)ccc12
inactive: [1] 45.9 µM | [2] 41.5 µM | [3] 34.4 µM | [4] 40.7 µM | [5] 37.3 µM | [6] 38.5 µM | [7] > 100 µM | [8] 34.3 µM | [9] 38.8 µM | [10] 33.2 µM | [11] 40.1 µM | [12] 66.2 µM | [13] > 100 µM | [14] > 100 µM | [15] 46.7 µM | [16] 32.4 µM | [17] 38.3 µM | [18] 33.1 µM | [19] 41.3 µM | [20] 36.1 µM

CCc1nc(N)nc(N)c1-c1ccc(NCCN)c([N+](=O)[O-])c1
inactive: [1] 13.7 µM | [2] 4.19 µM | [3] 5 µM | [4] 10.2 µM | [5] 7.03 µM | [6] 8.63 µM | [7] > 96.8 µM | [8] 11.3 µM | [9] 4.24 µM | [10] 12.1 µM | [11] 29 µM | [12] 24.7 µM | [13] 82.8 µM | [14] 33.9 µM | [15] 14.3 µM | [16] 10.4 µM | [17] 53.1 µM | [18] 7.13 µM | [19] 14.2 µM | [20] 20.5 µM

CC(C)(C)C1CCC2c3c([nH]c4ccccc34)C3C(=O)N(c4cccc(Cl)c4)C(=O)C3C2C1 (stereo not given)
inactive: [1] 15.8 µM | [2] 14.2 µM | [3] 9.62 µM | [4] 2.06 µM | [5] 8.28 µM | [6] 9.98 µM | [7] 19 µM | [8] 18.5 µM | [9] 7.48 µM | [10] 5.71 µM | [11] 11.5 µM | [12] 33.5 µM | [13] 24.1 µM | [14] 13.5 µM | [15] 9.33 µM | [16] 3.72 µM | [17] 17.8 µM | [18] 10.5 µM | [19] 12 µM | [20] 11.7 µM
